Experiment [1] deals with T1, PARK7 (Homo sapiens, UniProt Q99497).
T1 sequence (Q99497 1-189): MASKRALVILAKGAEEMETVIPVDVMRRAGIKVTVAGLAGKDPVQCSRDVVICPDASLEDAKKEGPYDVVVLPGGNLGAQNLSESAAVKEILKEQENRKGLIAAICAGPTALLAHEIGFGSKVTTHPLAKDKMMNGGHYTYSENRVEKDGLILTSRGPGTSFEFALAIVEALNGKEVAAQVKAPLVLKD
As to the kind of experiment: DiFMUAc PARK7 activity assay. The experiment is classed as biochemical. Also on record: GST (N, cleaved yes); made in house; host or cells: E. coli BL21(DE3) Rosetta2. Conditions: for inhibition at 12.5 µM: read-out: DiFMuAc assay %Inhibiton (12.5 µM); for inhibition at 37.5 µM: read-out: DiFMuAc assay %Inhibiton (37.5 µM); for inhibition at 100 µM: read-out: DiFMuAc assay %Inhibiton (100 µM). As for the experimental part: Compounds were transferred using a Labcyte Echo550 acoustic dispenser to obtain a 12-point serial dilution of 0.001 to 100 μM. Next, PARK7 (15 μL, final concentration of 0.1 μM) was dispensed with a Biotek MultiFlowFX liquid dispenser and incubated for 1 h, followed by dispensing the substrate DiFMUAc (5 μL, final concentration of 300 μM). The fluorescence intensity (FI) signal was monitored with a BMG Labtech PHERAstar plate reader (λex/em 350/450 nm) for 1 h.
The validation was performed in the PBS buffer with a reaction volume of 20 μL per well in triplicate. […] Next, PARK7 (15 μL, final concentration 0.1 μM) was dispensed with a Biotek MultiFlowFX liquid dispenser and incubated for 2 h, followed by dispensing the substrate DiFMUAc (5 μL, final concentration 300 μM). The FI signal was monitored with a BMG Labtech PHERAstar plate reader (λex/em 350/450 nm) for 1 h. The increase of FI signal compared with reference controls was used to calculate the remaining enzyme activity. The inhibition percentage of these 22 compounds was plotted as a heatmap using GraphPad Prism 9.0.1 software. Color gradients indicate inhibition percentage, no inhibiton (white) and full inhibition (blue).

Experiment [2] deals with T1, PARK7. Briefly: FP assay with Rhodamine110 probe JYQ-107 (IC50 and hit validation). The experiment is classed as binding. Further details: GST (N, cleaved yes); made in house; host or cells: E. coli BL21(DE3) Rosetta2. The conditions noted are these: for inhibition at 12.5 µM: read-out: FP assay %Inhibiton (12.5 µM); for inhibition at 37.5 µM: read-out: FP assay %Inhibiton (37.5 µM); for inhibition at 100 µM: read-out: FP assay %Inhibiton (100 µM). The procedure: The assay was performed using the conditions as described above with a reaction volume of 20 μL per well in triplicate. Stock solutions of JYQ-88 of 1 and 0.1 mM were prepared. […] The FP signal was monitored with a BMG Labtech PHERAstar plate reader (λex/em 480/520 nm) for 2 h.
The validation was performed using the conditions as described above with a reaction volume of 20 μL per well in triplicate. […] The FP signal was monitored with a BMG Labtech PHERAstar plate reader (λex/em 480/520 nm) for 2 h. The relative loss of FP signal compared with reference controls was used to calculate the remaining enzyme activity. Inhibition percentage of these 40 compounds was plotted as a heatmap using GraphPad Prism 9.0.1 software. Color gradients indicate inhibition percentage, no inhibiton (white) and full inhibition (blue).

The mark [3] stands for this setting: 12.5 µM compound, PARK7 0.2 μM, 1 h preincubation, JYQ-107 20 nM.
[4] abbreviates: 37.5 µM compound, PARK7 0.2 μM, 1 h preincubation, JYQ-107 20 nM.
Where [5] appears, read: 100 µM compound, PARK7 0.2 μM, 1 h preincubation, JYQ-107 20 nM.

For orientation: IC50 means the concentration at which inhibition is half-maximal. Low readings indicate greater potency in that assay, high ones weaker potency in that assay. Molecule `O=C1C(=O)N(CCc2ccccc2)c2ccc(F)cc21` [STK793590, reference compound] yielded an IC50 in experiment [1] (DiFMUAc assay, PARK7 0.1 μM, 1 h preincubation, DiFMUAc 300 μM) of 190 nM.
Take `O=C(CCl)c1ccccn1` [Z1954803958]: the inhibition at 12.5 µM in experiment [2] (setting [3]) came to 0%. Moreover, the inhibition at 37.5 µM in experiment [2] (setting [4]) was 0%. The inhibition at 100 µM in experiment [2] (setting [5]) came to 23.5%.
With `O=[N+]([O-])c1ccc(C(F)(F)F)c(S(=O)(=O)F)c1` [Z3396482545], the “FP assay %Inhibiton (12.5 µM)” value in experiment [2] (setting [3]) is 36.7%. Besides, in experiment [2] (setting [4]), the “FP assay %Inhibiton (37.5 µM)” value was 36.2%. The “FP assay %Inhibiton (100 µM)” value in experiment [2] (setting [5]) came to 92.4%.
On to `CC(C)(C)c1ccc(NC(=O)CCl)cc1` [Z56922153], for which the inhibition at 12.5 µM in experiment [1] (12.5 µM compound, PARK7 0.1 μM, 2 h preincubation, DiFMUAc 300 μM) is 87.1%; in experiment [2] (setting [3]), 100%. In addition, the inhibition at 37.5 µM in experiment [1] (37.5 µM compound, PARK7 0.1 μM, 2 h preincubation, DiFMUAc 300 μM) stood at 94.2%; in experiment [2] (setting [4]) it was 100%. Besides, the inhibition at 100 µM was 100% in experiment [1] (100 µM compound, PARK7 0.1 μM, 2 h preincubation, DiFMUAc 300 μM) and 100% in experiment [2] (setting [5]).
As to `CCCc1nnc(NS(=O)(=O)c2cccc(S(=O)(=O)F)c2)o1` [Z2509455014], in experiment [1], the inhibition at 12.5 µM is 97.8%, the inhibition at 37.5 µM turned out to be 99.3% and the inhibition at 100 µM was found to be 96.5%. In addition, in experiment [2], the inhibition at 12.5 µM was 100%, the inhibition at 37.5 µM was found to be 100% and the inhibition at 100 µM worked out at 100%.
Regarding `COc1ccccc1CN(C)C(=O)CCl` [Z57051055], the inhibition at 12.5 µM in experiment [2] (setting [3]) was 68.3%. Moreover, the inhibition at 37.5 µM in experiment [2] (setting [4]) turned out to be 66.1%. For the same molecule, the inhibition at 100 µM in experiment [2] (setting [5]) was found to be 100%.
For the molecule `O=C(CCl)Nc1ccc(SC(F)F)cc1` [Z56896308], the inhibition at 12.5 µM in experiment [2] (setting [3]) was found to be 62.4%. The inhibition at 37.5 µM in experiment [2] (setting [4]) worked out at 65.9%. Further, the inhibition at 100 µM in experiment [2] (setting [5]) amounted to 100%.
Take `O=C(CCl)Nc1ccc(N2CCCCCC2)cc1` [Z190662892]: the inhibition at 12.5 µM in experiment [2] (setting [3]) is 84.2%. For the same molecule, the inhibition at 37.5 µM in experiment [2] (setting [4]) came out at 85.1%. Further, in experiment [2] (setting [5]), the inhibition at 100 µM was found to be 100%.
As to `CC(c1ccc(Cl)cc1)N(C)C(=O)CCl` (stereo not shown) [Z1562123076], in experiment [2] (setting [3]), the inhibition at 12.5 µM came out at 79.5%. Also, in experiment [2] (setting [4]), the inhibition at 37.5 µM was 81.3%. In addition, the inhibition at 100 µM in experiment [2] (setting [5]) was determined as 100%.
On to `O=C(Nc1cccc(S(=O)(=O)F)c1)C1CCCC1` [Z1713569513], for which the “FP assay %Inhibiton (12.5 µM)” value in experiment [2] (setting [3]) worked out at 67.6%. Further, the “FP assay %Inhibiton (37.5 µM)” value in experiment [2] (setting [4]) turned out to be 76.9%. In addition, the “FP assay %Inhibiton (100 µM)” value in experiment [2] (setting [5]) was determined as 100.0%.
In the case of `CC(c1ccccc1)N(C)C(=O)CCl` (stereo not shown) [Z86023354], the inhibition at 12.5 µM in experiment [2] (setting [3]) stood at 88.4%. Besides, the inhibition at 37.5 µM in experiment [2] (setting [4]) is 89.7%. For the same molecule, the inhibition at 100 µM in experiment [2] (setting [5]) was found to be 100%.
Consider `O=C1CCC(CC(=O)Nc2cccc(S(=O)(=O)F)c2)CC1` [Z1832812448], for which, in experiment [2], the inhibition at 12.5 µM came out at 0%, the inhibition at 37.5 µM turned out to be 0% and the inhibition at 100 µM was 0%.
On to `CCc1ccc(NC(=O)CCl)cc1` [Z56886400], for which the inhibition at 12.5 µM in experiment [2] (setting [3]) is 90.8%. The inhibition at 37.5 µM in experiment [2] (setting [4]) was determined as 95.6%. Further, the inhibition at 100 µM in experiment [2] (setting [5]) worked out at 100%.
Regarding `Cn1c(=O)ccn(CC(=O)Nc2cccc(S(=O)(=O)F)c2)c1=O` [Z1713568698], in experiment [2], the inhibition at 12.5 µM came to 80.3%, the inhibition at 37.5 µM worked out at 78.2% and the inhibition at 100 µM was found to be 100%.

For the origin of these results see PMC9574860, “Chemical Toolkit for PARK7: Potent, Selective, and High-Throughput” (Journal of Medicinal Chemistry, 2022).
